# Assay results from patent publication US8163771B2, “11 β-HSD1 modulators” (Exelixis, Inc., priority 2008, dated 2012).
# Target: T1, recombinant human 11 β-HSD1 (Homo sapiens, UniProt P28845)
# T1 construct: made in house; host or cells: E. coli
# Test: 11 β-HSD1 SPA Assay (Scintillation Proximity Assay)
# Type: biochemical
# Experimental: (§1) Inhibition of 11 βHSD1 by test compounds was assessed in vitro by a Scintillation Proximity Assay (SPA). The assay was carried out in a 384-well assay plate in a total well volume of 26 μl and contained a mixture of tritiated cortisone substrate (40 nM), NADPH cofactor (1 mM), inhibitor in serial dilutions ([…] to 10 μM), and purified E. coli-expressed recombinant human 11 βHSD1 (30-100 nM) in assay buffer (50 mM HEPES, 100 mM KCl, 5 mM NaCl, and 2 mM MgCl2, pH7.4). Following mixing, the plate was incubated for 2 hours at room temperature. Reactions were stopped by addition of 30 μl of protein A YSi SPA beads (10 mg/ml) that had been pre-incubated with glycyrrhetinic acid (1 mM) and a monoclonal cortisol antibody (3 μg/ml). The plate was then incubated overnight at room temperature prior to reading on a Microbeta counter. Percent inhibition of each compound was calculated based on the background and the maximal signals. Wells that contained substrate without compound or enzyme were used as the background signal, while the wells that contained substrate and enzyme without any compound were used as the maximal signal. The calculation of the IC50 values for the inhibitors was performed by Activity Base.
# as §1, with “β-HSD1” for “βHSD1”
# T1 sequence (P28845 whole entry): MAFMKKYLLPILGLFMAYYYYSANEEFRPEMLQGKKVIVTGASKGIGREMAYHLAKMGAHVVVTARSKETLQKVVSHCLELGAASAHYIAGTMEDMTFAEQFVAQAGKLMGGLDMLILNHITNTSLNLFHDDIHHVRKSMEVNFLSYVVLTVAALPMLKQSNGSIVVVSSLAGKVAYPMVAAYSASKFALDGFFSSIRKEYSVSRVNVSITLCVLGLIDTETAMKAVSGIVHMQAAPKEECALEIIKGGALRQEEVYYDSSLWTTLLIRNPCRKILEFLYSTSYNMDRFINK
row,Compound,IC50
1,"CC(C)NC(=O)c1ccc(N2[C@@H]3CC[C@H]2C[C@@H](NC(=O)C(C)(C)Oc2ccc(Cl)cc2)C3)nc1 [Example 30, 6-[3-endo-({2-[(4-chlorophenyl)oxy]-2-methylpropanoyl}amino)-8-azabicyclo[3.2.1]oct-8-yl]-N-(1-methylethyl)pyridine 3-carboxamide]",< 200 nM
2,"CC(C)(Oc1ccc(Cl)cc1Cl)C(=O)N[C@H]1C[C@H]2CC[C@@H](C1)N2c1ccc(C(=O)NC2CC2)cn1 [Example 31, N-cyclopropyl-6-[3-endo-({2-[(2,4-dichlorophenyl)oxy]-2-methylpropanoyl}amino)-8-azabicyclo[3.2.1]oct-8-yl]pyridine-3-carboxamide]",< 200 nM
3,"CC(C)(Oc1ccc(Cl)cc1)C(=O)N[C@H]1C[C@H]2CC[C@@H](C1)N2c1ccc(C#N)cn1 [Example 32, 2-[(4-chlorophenyl)oxy]-N-[8-(5-cyanopyridin-2-yl)-8-azabicyclo[3.2.1]oct-3-endo-yl]-2-methylpropanamide]",< 200 nM
4,"CC(C)(Oc1ccc(F)c(F)c1)C(=O)N[C@H]1C[C@H]2CC[C@@H](C1)N2c1ccc(C(=O)NC2CC2)cn1 [Example 33, N-cyclopropyl-6-[3-endo-({2-[(3,4-difluorophenyl)oxy]-2-methylpropanoyl}amino)-8-azabicyclo[3.2.1]oct-8-yl]pyridine-3-carboxamide]",< 200 nM
5,"CC(C)(C(=O)N[C@H]1C[C@H]2CC[C@@H](C1)N2c1ccc(C(=O)NC2CC2)cn1)c1ccccc1Cl [Example 34, 6-(3-endo-{[2-(2-chlorophenyl)-2-methylpropanoyl]amino}-8-azabicyclo[3.2.1]oct-8-yl)-N-cyclopropylpyridine-3-carboxamide]",< 200 nM
6,"CC(C)(Oc1ccc(F)cc1F)C(=O)N[C@H]1C[C@H]2CC[C@@H](C1)N2c1ccc(C(=O)NC2CC2)cn1 [Example 35, N-cyclopropyl-6-[3-endo-({2-[(2,4-difluorophenyl)oxy]-2-methylpropanoyl}amino)-8-azabicyclo[3.2.1]oct-8-yl]pyridine-3-carboxamide]",< 200 nM
7,"CC(C)(Oc1ccc(Cl)cc1)C(=O)N[C@H]1C[C@H]2CC[C@@H](C1)N2c1ncc(C(=O)NC2CC2)cn1 [Example 36, 2-[3-endo-({2-[(4-chlorophenyl)oxy]-2-methylpropanoyl}amino)-8-azabicyclo[3.2.1]oct-8-yl]-N-cyclopropylpyrimidine-5-carboxamide]",< 200 nM
8,"CC(C)(Oc1ccc(C(F)(F)F)cc1)C(=O)N[C@H]1C[C@H]2CC[C@@H](C1)N2c1ccc(C(=O)NC2CC2)cn1 [Example 37, N-cyclopropyl-6-{3-endo-[(2-methyl-2-{[4-(trifluoromethyl)phenyl]oxy}propanoyl)amino]-8-azabicyclo[3.2.1]oct-8-yl}pyridine-3-carboxamide]",< 200 nM
9,"CC(C)(Oc1ccc(C#N)cc1)C(=O)N[C@H]1C[C@H]2CC[C@@H](C1)N2c1ccc(C(=O)NC2CC2)cn1 [Example 38, 6-[3-endo-({2-[(4-cyanophenyl)oxy]-2-methylpropanoyl}amino)-8-azabicyclo[3.2.1]oct-8-yl]-N-cyclopropylpyridine-3-carboxamide]",< 200 nM
10,"O=C(NC1CC1)c1ccc(N2[C@@H]3CC[C@H]2C[C@@H](NC(=O)C2(c4cccc(F)c4)CC2)C3)nc1 [Example 39, N-cyclopropyl-6-[3-endo-({[1-(3-fluorophenyl)cyclopropyl]carbonyl}amino)-8-azabicyclo[3.2.1]oct-8-yl]pyridine-3-carboxamide]",< 200 nM
11,"Cc1cc(C(=O)NC2CC2)cnc1N1[C@@H]2CC[C@H]1C[C@@H](NC(=O)C(C)(C)Oc1ccc(Cl)cc1)C2 [Example 40, 6-[3-endo-({2-[(4-chlorophenyl)oxy]-2-methylpropanoyl}amino)-8-azabicyclo[3.2.1]oct-8-yl]-N-cyclopropyl-5-methylpyridine-3-carboxamide]",< 200 nM
12,"CC(C)(Oc1ccc(Cl)cc1F)C(=O)N[C@H]1C[C@H]2CC[C@@H](C1)N2c1ccc(C(=O)NC2CC2)cn1 [Example 41, 6-[3-endo-({2-[(4-chloro-2-fluorophenyl)oxy]-2-methylpropanoyl}amino)-8-azabicyclo[3.2.1]oct-8-yl]-N-cyclopropylpyridine-3-carboxamide]",< 200 nM
13,"CC(C)(Oc1ccc(Cl)c(Cl)c1)C(=O)N[C@H]1C[C@H]2CC[C@@H](C1)N2c1ccc(C(=O)NC2CC2)cn1 [Example 42, N-cyclopropyl-6-[3-endo-({2-[(3,4-dichlorophenyl)oxy]-2-methylpropanoyl}amino)-8-azabicyclo[3.2.1]oct-8-yl]pyridine-3-carboxamide]",< 200 nM
14,"CC(C)(Oc1ccc(Cl)c(F)c1)C(=O)N[C@H]1C[C@H]2CC[C@@H](C1)N2c1ccc(C(=O)NC2CC2)cn1 [Example 43, 6-[3-endo-({2-[(4-chloro-3-fluorophenyl)oxy]-2-methylpropanoyl}amino)-8-azabicyclo[3.2.1]oct-8-yl]-N-cyclopropylpyridine-3-carboxamide]",< 200 nM
15,"COc1ccc(OC(C)(C)C(=O)N[C@H]2C[C@H]3CC[C@@H](C2)N3c2ccc(C(=O)NC3CC3)cn2)cc1 [Example 44, N-cyclopropyl-6-{3-endo-[(2-methyl-2-{[4-(methyloxy)phenyl]oxy}pro-panoyl)amino]-8-azabicyclo[3.2.1]oct-8-yl}pyridine-3-carboxamide]",< 200 nM
16,"O=C(NC1CC1)c1ccc(N2[C@@H]3CC[C@H]2C[C@@H](NC(=O)C2(Oc4ccccc4)CC2)C3)nc1 [Example 45, N-cyclopropyl-6-[3-endo-({[1-(phenyloxy)cyclopropyl]carbonyl}amino)-8-azabicyclo[3.2.1]oct-8-yl]pyridine-3-carboxamide]",< 200 nM
17,"O=C(NC1CC1)c1ccc(N2[C@@H]3CC[C@H]2C[C@@H](NC(=O)C2(Oc4ccccc4)CCC2)C3)nc1 [Example 46, N-cyclopropyl-6-[3-endo-({[1-(phenyloxy)cyclobutyl]carbonyl}amino)-8-azabicyclo[3.2.1]oct-8-yl]pyridine-3-carboxamide]",< 200 nM
18,"O=C(NC1CC1)c1ccc(N2[C@@H]3CC[C@H]2C[C@@H](NC(=O)C2(Oc4ccc(Cl)cc4)CCC2)C3)nc1 [Example 47, 6-{3-endo-[({1-[(4-chlorophenyl)oxy]cyclobutyl}carbonyl)amino]-8-azabicyclo[3.2.1]oct-8-yl}-N-cyclopropylpyridine-3-carboxamide]",< 200 nM
19,"CC(Oc1ccccc1)C(=O)N[C@H]1C[C@H]2CC[C@@H](C1)N2c1ccc(C(=O)NC2CC2)cn1 (stereo partly drawn) [Example 48, N-cyclopropyl-6-(3-endo-{[2-(phenyloxy)propanoyl]amino}-8-azabicycio[3.2.1]oct-8-yl)pyridine-3-carboxamide]",< 2000 nM
20,"CC(Oc1ccc(Cl)cc1)C(=O)N[C@H]1C[C@H]2CC[C@@H](C1)N2c1ccc(C(=O)NC2CC2)cn1 (stereo partly drawn) [Example 49, 6-[3-endo-({2-[(4-chlorophenyl)oxy]propanoyl}amino)-8-azabicyclo[3.2.1]oct-8-yl]-N-cyclopropylpyridine-3-carboxamide]",< 2000 nM
21,"O=C(NC1CC1)c1ccc(N2[C@@H]3CC[C@H]2C[C@@H](NC(=O)C2(c4ccc(Cl)cc4)CCC2)C3)nc1 [Example 50, 6-[3-endo-({[1-(4-chlorophenyl)cyclobutyl]carbonyl}amino)-8-azabicyclo[3.2.1]oct-8-yl]-N-cyclopropylpyridine-3-carboxamide]",< 200 nM
22,"Cc1nc(N2[C@@H]3CC[C@H]2C[C@@H](NC(=O)C(C)(C)Oc2ccc(Cl)cc2)C3)ccc1C(=O)NC1CC1 [Example 51, 6-[3-endo-({2-[(4-chlorophenyl)oxy]-2-methylpropanoyl}amino)-8-azabicyclo[3.2.1]oct-8-yl]-N-cyclopropyl-2-methylpyridine-3-carboxamide]",< 2000 nM
23,"CC(C)(Oc1ccc(F)cc1Cl)C(=O)N[C@H]1C[C@H]2CC[C@@H](C1)N2c1ccc(C(=O)NCC(F)(F)F)cn1 [Example 52, 6-[3-endo-({2-[(2-chloro-4-fluorophenyl)oxy]-2-methylpropanoyl}amino)-8-azabicyclo[3.2.1]oct-8-yl]-N-(2,2,2-trifluoroethyl)pyridine-3-carboxamide]",< 200 nM
24,"CC(C)NC(=O)c1ccc(N2[C@@H]3CC[C@H]2C[C@@H](NC(=O)C(C)(C)Oc2ccc(Cl)cc2Cl)C3)nc1 [Example 54, 6-[3-endo-({2-[(2,4-dichlorophenyl)oxy]-2-methylpropanoyl}amino)-8-azabicyclo[3.2.1]oct-8-yl]-N-(1-methylethyl)pyridine-3-carboxamide]",< 200 nM
